Experimental findings from article PMC5095062, “The novel choline kinase inhibitor ICL-CCIC-0019 reprograms cellular metabolism and inhibits cancer cell growth” (Oncotarget, 2016) are described below.

SMILES strings stand for the structures. Where two headings read alike, the source gives them in different places.

Data set [1] is described as follows: Tissue pharmacokinetics in HCT116 xenograft bearing mice. It counts as in vivo, BALB/c nude mice. As to conditions: 10 mg/kg i.p. On the procedure:
(§1) Plasma pharmacokinetic parameters of ICL-CCIC-0019 were established in female BALB/c mice aged 6–8 weeks (Harlan). Mice were intraperitoneally (i.p.) or perorally (p.o.) administered a single dose of 10 mg/kg and blood collected by cardiac puncture after 5, 15, 30 minutes and 1, 2, 4, 6 and 24 h. For tissue pharmacokinetic studies, HCT116 xenograft bearing mice were administered 10 mg/kg ICL-CCIC-0019 i.p. and blood collected after 5 minutes, 2, 6 and 24 h. Plasma was obtained by centrifugation at 1000 × g for 10 minutes. Samples were snap-frozen and stored at −80°C prior to analysis. Analysis was carried out by Cyprotex Inc. using liquid chromatography–mass spectrometry (LC–MS). For analysis of plasma metabolites, 2-hour samples of tissue pharmacokinetic studies were pooled.

A short description of a further data set: Plasma pharmacokinetics. As to conditions: for AUC / Cmax / half-life: female, BALB/c, mouse, plasma; for half-life: 10 mg/kg. It counts as in vivo, BALB/c mice. The procedure:
as §1

The test system of the next data set is 2 normal cell lines. The data set can be described thus: Antiproliferative activity (SRB), initial cell line screen. As to conditions: Homo sapiens; normal cells. It counts as cell-based. The procedure:
(§2) Enzymatic kinase activity, [^3H]choline to [^3H]PCho conversion and growth inhibition assays was conducted as previously described. [^3H]choline incorporation into soluble and lipid fractions was determined by a pulse-chase experiment. HCT116 cells were seeded at a density of 3 × 10^5 cell per well into 12-well plates and incubated overnight. Cells were treated with 1 or 10 μM ICL-CCIC-0019 for 1 h and pulsed in presence of inhibitor with 18.5 kBq/mL [^3H]choline chloride in 500 μL for 1 additional h. Cells were briefly rinsed with RPMI and incubated with fresh, non-radioactive medium for 6 h. Metabolites were extracted as described elsewhere, but additionally the radioactivity of the choline-containing and chloroform (lipid-containing) fractions was measured. Uptake of radiolabeled metabolite-tracers was measured as described elsewhere. Antiproliferative activity was measured after 72 h continuous exposure to inhibitors by sulforhodamine B (SRB) assay as described elsewhere. Apoptosis was determined using Caspase 3/7 Glo assay (Promega) according to the manufacturer's instructions.

A further data set relates to 8 cancer cell lines. The data set is described as above. It counts as cell-based. As to conditions: Homo sapiens. The procedure: as §2
In another data set the target is TAO1 (Homo sapiens, UniProt Q7L7X3). The data set is described as follows: Kinase selectivity screen. It counts as biochemical. As to conditions: TAO1, 10 μM. On the procedure:
(§3) The substantially less demanding synthesis of ICL-CCIC-0019 compared with MN58B bears additional advantages. […] This consequently diminished intracellular PCho concentration, and importantly, the incorporation of [^3H]-choline into lipids (Figure 1D). […] To assess kinase specificity, ICL-CCIC-0019 was tested against a panel of 131 human kinases (Figure 1E and Supplementary Table S1). […] Inhibition greater than 20% was attained for insulin-like growth factor 1 (IGF-1R, 35 ± 7% inhibition), mitogen-activated protein kinase-activated protein kinase 3 (MAPKAP-K3, 33 ± 6%), extracellular signal regulated kinase 8 (ERK8, 31 ± 4%), ribosomal S6 kinase 1 (RSK1, 22 ± 6%), and v-erb-a erythroblastic leukemia viral oncogene homolog 4 (HER4, 21 ± 7%).

The target of another data set is PAK2 (Homo sapiens, UniProt Q13177). The data set can be described thus: Kinase selectivity screen. The note with it: PAK2, 10 μM. It counts as biochemical. The procedure: as §3
The target in another data set is CK2 (Homo sapiens, UniProt P68400). The data set can be described thus: Kinase selectivity screen. It counts as biochemical. The note with it: CK2, 10 μM. On the procedure: as §3
The next data set deals with HCT116 cells. The data set is described as follows: Mitochondrial respiration (Seahorse XF24). As to conditions: 10 μM. It counts as cell-based, human. On the procedure: Extracellular acidification and oxygen consumption rates (ECAR and OCR) were measured in a XF24 extracellular flux analyzer (Seahorse XF24 Extra Cellular Flux Analyzer, North Billerica, MA, USA). Basic XF assay medium was prepared as previously described supplemented with glucose, and the pH adjusted to 7.4 at 37°C. Indicated final concentrations of compounds were obtained by injecting appropriate amounts of compounds dissolved in DMSO or water and diluted in XF assay medium into ports. […] Indicated data points were obtained after 3 min mixing and 2 min wait, followed by 3 min of data collection. Data were normalized to the basal values.

A further data set has as its system A549 cells. The data set is described as follows: Comparative antiproliferative activity. It counts as cell-based, human. The procedure: as §2
The test system of another data set is HCT116 xenografts. The data set is described as follows: Antitumor activity in HCT116 xenograft model. It counts as in vivo, BALB/c nude mice. The note with it: 5 mg/kg i.p. once a day on days 1–3, 11 day recovery. The procedure: All animal experiments were conducted in accordance with the United Kingdom Home Office Guidance on the Operation of The Animals (Scientific Procedures) Act 1986 Amendment Regulations 2012 and within the published guidelines for the welfare and use of animals in cancer research. Xenografts were established in female BALB/c nude mice aged 6–8 weeks (Harlan) by subcutaneous (s.c.) injection of 100 μL HCT116 cells (5 × 10^6 in PBS) on the back of mice. Tumor dimensions were frequently measured by calliper and volumes calculated by the following equation: volume (mm^3) = (π/6) × a × b × c, where a, b, and c represent 3 orthogonal axes of the tumor. When tumor volumes reached approximately 50–100 mm^3 (ca. 10 days post injection), mice were used for subsequent studies.

The target in another data set is T1, CHKA (Homo sapiens, UniProt P35790).
T1 construct: endogenous in cells; host or cells: HCT116
The data set is described as follows: CHKA dimer integrity by BN-PAGE. It counts as cell-based. As to conditions: HCT116 cells, 24 hours. On the procedure:
Native gels were run using blue native polyacrylamide gel electrophoresis (BN-PAGE) method. Cell homogenates were obtained by addition of passive lysis buffer (Promega) containing protease and phosphatase inhibitors to cell pellets and incubation for 30 minutes on a tube rotor at 4°C. Samples were cleared by centrifugation for 10 minutes at 12 000 × g at 4°C. Samples were prepared by mixing 30 μg protein with an equal volume of 2 × sample buffer (62.5 mM Tris-HCl, pH 6.8, 25% (v/v) glycerol, 0.01% (w/v) bromophenol blue, 0.02% (w/v) Coomassi Blue G250; all from Sigma-Aldrich). As control, D49N CHKA2 [58] was either applied under native conditions (100 ng diluted to 10 μL in 100 mM Tris buffer pH 7.4 added to 10 μL 2 × sample buffer) or denatured using SDS [100 ng diluted in RIPA buffer, 1 × NuPAGE LDS sample buffer and 1 × sample reducing agent (both Life Technologies)] and incubated at 70°C for 10 minutes. Samples were resolved on 4–15% mini-protean TGX gels using 1 × native running buffer (25 mM Tris, 192 mM glycine, pH 8.3). The cathode buffer was additionally supplemented with 750 μL Coomassi Blue G250 [final concentration ca. 0.04% (w/v)]. Membranes were transferred and probed as described above.

PAK2, sequence (Q13177 whole entry): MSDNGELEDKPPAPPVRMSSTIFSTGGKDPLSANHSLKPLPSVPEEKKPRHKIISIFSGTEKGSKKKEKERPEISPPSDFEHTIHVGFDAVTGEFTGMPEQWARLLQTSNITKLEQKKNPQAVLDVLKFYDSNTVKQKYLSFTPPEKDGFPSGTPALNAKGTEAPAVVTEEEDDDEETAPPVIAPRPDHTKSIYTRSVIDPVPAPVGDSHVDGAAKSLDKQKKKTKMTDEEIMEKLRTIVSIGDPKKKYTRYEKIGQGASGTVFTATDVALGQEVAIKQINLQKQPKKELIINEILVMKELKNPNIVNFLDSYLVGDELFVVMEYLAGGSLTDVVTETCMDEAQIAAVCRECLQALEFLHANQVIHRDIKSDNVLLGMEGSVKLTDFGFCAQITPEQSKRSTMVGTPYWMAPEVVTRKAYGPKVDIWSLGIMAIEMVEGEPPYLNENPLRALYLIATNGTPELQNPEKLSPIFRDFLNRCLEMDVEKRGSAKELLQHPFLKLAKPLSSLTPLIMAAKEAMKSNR
CK2, sequence (P68400 whole entry): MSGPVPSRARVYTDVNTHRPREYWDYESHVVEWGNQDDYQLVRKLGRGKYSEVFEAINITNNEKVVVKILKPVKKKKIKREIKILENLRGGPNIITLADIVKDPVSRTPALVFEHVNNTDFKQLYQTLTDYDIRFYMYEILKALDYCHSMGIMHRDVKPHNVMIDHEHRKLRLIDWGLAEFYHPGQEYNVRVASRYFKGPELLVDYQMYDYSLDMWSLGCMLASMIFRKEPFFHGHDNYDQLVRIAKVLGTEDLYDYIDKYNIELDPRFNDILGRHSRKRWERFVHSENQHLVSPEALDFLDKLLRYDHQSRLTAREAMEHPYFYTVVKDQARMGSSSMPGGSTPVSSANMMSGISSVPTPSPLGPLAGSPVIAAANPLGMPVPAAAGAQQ
TAO1, sequence (Q7L7X3 whole entry): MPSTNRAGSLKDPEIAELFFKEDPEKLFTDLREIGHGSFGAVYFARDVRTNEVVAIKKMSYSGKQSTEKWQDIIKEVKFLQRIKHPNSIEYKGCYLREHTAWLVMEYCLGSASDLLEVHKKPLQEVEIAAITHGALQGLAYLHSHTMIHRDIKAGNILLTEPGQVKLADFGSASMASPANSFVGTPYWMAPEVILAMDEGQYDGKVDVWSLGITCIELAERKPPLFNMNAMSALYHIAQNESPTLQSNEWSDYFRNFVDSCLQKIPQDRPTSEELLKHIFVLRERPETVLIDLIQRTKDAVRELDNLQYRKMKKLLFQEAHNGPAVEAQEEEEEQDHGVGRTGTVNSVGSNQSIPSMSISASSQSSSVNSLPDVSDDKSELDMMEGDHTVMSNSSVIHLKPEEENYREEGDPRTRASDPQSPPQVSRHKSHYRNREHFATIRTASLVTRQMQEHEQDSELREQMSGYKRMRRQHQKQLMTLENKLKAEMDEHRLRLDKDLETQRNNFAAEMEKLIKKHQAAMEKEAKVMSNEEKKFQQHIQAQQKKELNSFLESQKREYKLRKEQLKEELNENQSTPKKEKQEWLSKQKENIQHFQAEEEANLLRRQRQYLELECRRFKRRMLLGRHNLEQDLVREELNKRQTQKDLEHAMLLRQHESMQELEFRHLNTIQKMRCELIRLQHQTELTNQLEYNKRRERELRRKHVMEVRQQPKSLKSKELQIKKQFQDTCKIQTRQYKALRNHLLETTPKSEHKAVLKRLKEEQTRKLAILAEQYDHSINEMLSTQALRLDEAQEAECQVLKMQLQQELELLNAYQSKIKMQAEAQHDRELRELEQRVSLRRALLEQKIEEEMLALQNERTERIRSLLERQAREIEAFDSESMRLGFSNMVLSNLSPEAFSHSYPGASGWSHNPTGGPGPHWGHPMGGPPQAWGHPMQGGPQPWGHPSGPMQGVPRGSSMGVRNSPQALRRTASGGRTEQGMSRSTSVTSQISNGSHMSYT
T1 sequence (P35790 whole entry): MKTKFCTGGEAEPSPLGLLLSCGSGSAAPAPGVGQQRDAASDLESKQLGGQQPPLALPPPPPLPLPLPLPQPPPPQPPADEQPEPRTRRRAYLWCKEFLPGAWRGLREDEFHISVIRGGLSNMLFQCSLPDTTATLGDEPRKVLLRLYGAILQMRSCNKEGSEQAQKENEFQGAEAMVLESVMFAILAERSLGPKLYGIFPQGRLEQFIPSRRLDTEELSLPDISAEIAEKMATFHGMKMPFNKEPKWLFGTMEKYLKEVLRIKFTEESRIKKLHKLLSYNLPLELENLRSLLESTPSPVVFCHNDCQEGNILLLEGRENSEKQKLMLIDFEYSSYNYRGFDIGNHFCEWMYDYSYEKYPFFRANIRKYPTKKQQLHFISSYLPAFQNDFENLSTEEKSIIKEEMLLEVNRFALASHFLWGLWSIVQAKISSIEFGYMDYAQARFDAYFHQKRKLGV

Regarding `CN(C)c1cc[n+](CCCCCCCCCCCC[n+]2ccc(N(C)C)cc2)cc1` [ICL-CCIC-0019], in data set [1], the “time of peak tumor concentration post injection” value worked out at 2 h. The oral bioavailability result in the data set “Plasma pharmacokinetics” (10 mg/kg p.o.) is listed as “limited”. Also, the area under the curve (AUC) (usually concentration integrated over time) in “Plasma pharmacokinetics” (ip, 10 mg/kg I.P.) is 1.32 µM·h; in the data set “Plasma pharmacokinetics” (po, 10 mg/kg P.O), 0.05 µM·h. Also, the highest concentration (Cmax) (usually the highest concentration seen after dosing) is 5300 nM in “Plasma pharmacokinetics” (ip, 10 mg/kg I.P.) and 36 nM in the data set “Plasma pharmacokinetics” (po, 10 mg/kg P.O). For the same compound, the half-life in “Plasma pharmacokinetics” (ip, 10 mg/kg I.P., read-out: t1/2 (1)) is 0.0967 h; in “Plasma pharmacokinetics” (ip, 10 mg/kg I.P., read-out: t1/2 (2) (converted)), 11 h; in “Plasma pharmacokinetics” (po, 10 mg/kg P.O, read-out: t1/2 (1)) it was 0.167 h; in the data set “Plasma pharmacokinetics” (po, 10 mg/kg P.O, read-out: t1/2 (2) (converted)) it was 56 h. The figures for the GI50 with 2 normal cell lines, in the data set on 8 cancer cell lines (read-out: GI50 range) and in the data set with 8 cancer cell lines (read-out: mean GI50) were 30 to 120 µM, 0.38 to 2.7 µM and 1.09 µM, respectively. The results for the remaining activity at 10 µM at TAO1, at PAK2 and at CK2 were 100%, 107% and 86%, respectively. In addition, the “mitochondrial respiration immediately after adding inhibitor (acute effect)” value in the data set on HCT116 cells was “decreased mitochondrial respiration”. Moreover, the “antiproliferative activity compared with CK37” value with A549 cells is reported as “superior to CK37”. For the same compound, in the data set with A549 cells, the “antiproliferative activity compared with MN58B” value is listed as “equipotent to MN58B”. The antitumour activity entry in the data set with HCT116 xenografts is “potent antitumour activity”. Moreover, at CHKA, the CHKA enzyme dimerization result is on record as “not compromised”.
